Data from ChEMBL document CHEMBL1201862, “PubChem BioAssay data set” (2004).
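Values below derive from 48-hour exposures of cells grown in 96-well plates, with endpoints linearly interpolated between the two concentrations bracketing the appropriate inhibition level. The concentration for 50% growth inhibition is given as GI50.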 Activity calls are given as the source filed them. Rule as the data show it: active = GI50 up to about 1.1 µM and inactive = higher.

Tests used:
Assay in all cases: DTP human tumour cell line panel, 48 h
HCC 2998 = test system: HCC 2998
SK-OV-3 = test system: SK-OV-3
UO-31 = test system: UO-31
HOP-92 = test system: HOP-92
M14 = test system: M14
NCI-H23 = test system: NCI-H23
NCI-H522 = test system: NCI-H522
SNB-19 = test system: SNB-19
OVCAR-8 = test system: OVCAR-8
SW-620 = test system: SW-620
ACHN = test system: ACHN
SF-268 = test system: SF-268
RXF 393 = test system: RXF 393
HT-29 = test system: HT-29
SNB-75 = test system: SNB-75
SF-539 = test system: SF-539
CCRF-CEM = test system: CCRF-CEM
SF-295 = test system: SF-295
DMS-273 = test system: DMS-273
SR = test system: SR
HCT-15 = test system: HCT-15
K562 = test system: K562
OVCAR-5 = test system: OVCAR-5
SK-MEL-2 = test system: SK-MEL-2
HOP-62 = test system: HOP-62
KM-20L2 = test system: KM-20L2
NCI-H460 = test system: NCI-H460
SNB-78 = test system: SNB-78
HCT-116 = test system: HCT-116
Malme-3M = test system: Malme-3M
RPMI-8226 = test system: RPMI-8226
HOP-18 = test system: HOP-18
XF498 = test system: XF498
SK-MEL-28 = test system: SK-MEL-28
M19-MEL = test system: M19-MEL
UACC-257 = test system: UACC-257
KM12 = test system: KM12
786-0 = test system: 786-0
MOLT-4 = test system: MOLT-4
SK-MEL-5 = test system: SK-MEL-5
IGROV-1 = test system: IGROV-1
DLD-1 = test system: DLD-1
U-251 = test system: U-251
A498 = test system: A498
SN12C = test system: SN12C
CAKI-1 = test system: CAKI-1
EKVX = test system: EKVX
NCI-H226 = test system: NCI-H226
HL-60 = test system: HL-60
TK-10 = test system: TK-10
UACC-62 = test system: UACC-62
LXFL 529 = test system: LXFL 529
OVCAR-4 = test system: OVCAR-4
A549 = test system: A549
DMS-114 = test system: DMS-114
RXF 631 = test system: RXF 631
COLO 205 = test system: COLO 205
LOX IMVI = test system: LOX IMVI
OVCAR-3 = test system: OVCAR-3

For `CN(C)C(=O)NC(=S)N(C)C`, the GI50 (HCC 2998) was > 100 µM (inactive), the GI50 (SK-OV-3) was > 100 µM (inactive) and the GI50 (UO-31) was > 100 µM (inactive). For the same compound, the GI50 (HOP-92) was > 100 µM (inactive), the GI50 (M14) was > 100 µM (inactive) and the GI50 (NCI-H23) was > 100 µM (inactive). For the same compound, the GI50 (NCI-H522) was > 100 µM (inactive), the GI50 (SNB-19) was > 100 µM (inactive) and the GI50 (OVCAR-8) was > 100 µM (inactive). The GI50 (SW-620) was > 100 µM (inactive), the GI50 (ACHN) was > 100 µM (inactive) and the GI50 (SF-268) was > 100 µM (inactive). For the same compound, the GI50 (RXF 393) was > 100 µM (inactive), the GI50 (HT-29) was > 100 µM (inactive) and the GI50 (SNB-75) was > 100 µM (inactive). For the same compound, the GI50 (SF-539) was > 100 µM (inactive), the GI50 (CCRF-CEM) was > 100 µM (inactive) and the GI50 (SF-295) was > 100 µM (inactive). For the same compound, the GI50 (DMS-273) was > 100 µM (inactive), the GI50 (SR) was > 100 µM (inactive) and the GI50 (HCT-15) was 17.1 µM. The GI50 (K562) was > 100 µM (inactive), the GI50 (OVCAR-5) was > 100 µM (inactive) and the GI50 (SK-MEL-2) was > 100 µM (inactive). The GI50 (HOP-62) was 0.294 µM (active), the GI50 (KM-20L2) was > 100 µM (inactive) and the GI50 (NCI-H460) was > 100 µM (inactive). The GI50 (SNB-78) was > 100 µM (inactive), the GI50 (HCT-116) was > 100 µM (inactive) and the GI50 (Malme-3M) was > 100 µM (inactive). For the same compound, the GI50 (RPMI-8226) was > 100 µM (inactive), the GI50 (HOP-18) was > 100 µM (inactive) and the GI50 (XF498) was > 100 µM (inactive). The GI50 (SK-MEL-28) was > 100 µM (inactive), the GI50 (M19-MEL) was > 100 µM (inactive) and the GI50 (UACC-257) was > 100 µM (inactive). For the same compound, the GI50 (KM12) was > 100 µM (inactive), the GI50 (786-0) was > 100 µM (inactive) and the GI50 (MOLT-4) was > 100 µM (inactive). The GI50 (SK-MEL-5) was > 100 µM (inactive), the GI50 (IGROV-1) was > 100 µM (inactive) and the GI50 (DLD-1) was > 100 µM (inactive). For the same compound, the GI50 (U-251) was 0.206 µM (active), the GI50 (A498) was > 100 µM (inactive) and the GI50 (SN12C) was > 100 µM (inactive). The GI50 (CAKI-1) was > 100 µM (inactive), the GI50 (EKVX) was > 100 µM (inactive) and the GI50 (NCI-H226) was 55.1 µM (inactive). The GI50 (HL-60) was > 100 µM (inactive), the GI50 (TK-10) was > 100 µM (inactive) and the GI50 (UACC-62) was > 100 µM (inactive). The GI50 (LXFL 529) was > 100 µM (inactive), the GI50 (OVCAR-4) was > 100 µM (inactive) and the GI50 (A549) was > 100 µM (inactive). For the same compound, the GI50 (DMS-114) was > 100 µM (inactive).
With `Cc1nccc2c1cnc1ccnn12` the GI50 (HCC 2998) was > 100 µM (inactive), the GI50 (SK-OV-3) was > 100 µM (inactive) and the GI50 (UO-31) was > 100 µM (inactive). For the same compound, the GI50 (HOP-92) was > 100 µM (inactive), the GI50 (M14) was > 100 µM (inactive) and the GI50 (NCI-H23) was > 100 µM (inactive). For the same compound, the GI50 (NCI-H522) was > 100 µM (inactive), the GI50 (SNB-19) was > 100 µM (inactive) and the GI50 (OVCAR-8) was > 100 µM (inactive). For the same compound, the GI50 (RXF 631) was > 100 µM (inactive), the GI50 (COLO 205) was > 100 µM (inactive) and the GI50 (SW-620) was > 100 µM (inactive). The GI50 (ACHN) was > 100 µM (inactive), the GI50 (SF-268) was > 100 µM (inactive) and the GI50 (RXF 393) was > 100 µM (inactive). For the same compound, the GI50 (HT-29) was > 100 µM (inactive), the GI50 (SNB-75) was > 100 µM (inactive) and the GI50 (SF-539) was > 100 µM (inactive). The GI50 (CCRF-CEM) was > 100 µM (inactive), the GI50 (DMS-273) was > 100 µM (inactive) and the GI50 (SR) was > 100 µM (inactive). For the same compound, the GI50 (HCT-15) was > 100 µM, the GI50 (K562) was > 100 µM (inactive) and the GI50 (OVCAR-5) was > 100 µM (inactive). For the same compound, the GI50 (SK-MEL-2) was > 100 µM (inactive), the GI50 (HOP-62) was > 100 µM (inactive) and the GI50 (KM-20L2) was > 100 µM (inactive). The GI50 (NCI-H460) was > 100 µM (inactive), the GI50 (SNB-78) was > 100 µM (inactive) and the GI50 (HCT-116) was > 100 µM (inactive). For the same compound, the GI50 (Malme-3M) was > 100 µM (inactive), the GI50 (RPMI-8226) was > 100 µM (inactive) and the GI50 (SK-MEL-28) was > 100 µM (inactive). The GI50 (M19-MEL) was > 100 µM (inactive), the GI50 (UACC-257) was > 100 µM (inactive) and the GI50 (LOX IMVI) was > 100 µM (inactive). For the same compound, the GI50 (KM12) was > 100 µM (inactive), the GI50 (786-0) was > 100 µM (inactive) and the GI50 (MOLT-4) was > 100 µM (inactive). The GI50 (SK-MEL-5) was > 100 µM (inactive), the GI50 (IGROV-1) was > 100 µM (inactive) and the GI50 (DLD-1) was > 100 µM (inactive). For the same compound, the GI50 (OVCAR-3) was > 100 µM (inactive), the GI50 (U-251) was > 100 µM (inactive) and the GI50 (A498) was > 100 µM (inactive). The GI50 (SN12C) was > 100 µM (inactive), the GI50 (CAKI-1) was > 100 µM (inactive) and the GI50 (EKVX) was 67.1 µM (inactive). For the same compound, the GI50 (NCI-H226) was > 100 µM (inactive), the GI50 (HL-60) was > 100 µM (inactive) and the GI50 (TK-10) was > 100 µM (inactive). For the same compound, the GI50 (LXFL 529) was > 100 µM (inactive), the GI50 (OVCAR-4) was > 100 µM (inactive) and the GI50 (A549) was > 100 µM (inactive). The GI50 (DMS-114) was > 100 µM (inactive).
